From US20250236629A1, “MEDIUM- OR MACRO-CYCLIC BENZYL-SUBSTITUTED HETEROCYCLE DERIVATIVES AND RELATED USES” (CENTESSA PHARMACEUTICALS (UK) LIMITED, priority 2022, published 2025) come the findings set out here.

Read-outs that look alike come from different tables or passages of the source.

For data set [1] the following is noted: DCM.
For data set [2], the target named is T1, human orexin type 2 receptor (hOX2R) (Homo sapiens, UniProt O43614).
T1 construct: the Orexin receptor cDNA was inserted into pcDNA3.1(+) plasmid vector; expressed in transfected cells
T1 sequence (O43614 1-444): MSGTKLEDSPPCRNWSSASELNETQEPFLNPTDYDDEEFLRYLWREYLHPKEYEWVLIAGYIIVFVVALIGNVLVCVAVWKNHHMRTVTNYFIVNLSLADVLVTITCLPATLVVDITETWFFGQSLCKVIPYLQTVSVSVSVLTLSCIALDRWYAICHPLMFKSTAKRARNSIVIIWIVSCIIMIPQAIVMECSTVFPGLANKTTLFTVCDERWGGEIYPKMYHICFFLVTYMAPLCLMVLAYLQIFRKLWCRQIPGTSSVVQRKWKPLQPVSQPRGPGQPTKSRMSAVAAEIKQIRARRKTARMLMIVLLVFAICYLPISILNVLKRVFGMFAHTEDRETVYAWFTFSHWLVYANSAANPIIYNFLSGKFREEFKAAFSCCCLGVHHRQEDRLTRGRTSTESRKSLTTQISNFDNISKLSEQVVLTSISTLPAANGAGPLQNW
Kind of data set: Orexin type 2 receptor agonist activity, intracellular Ca2+ (FLIPR TETRA) in CHO cells. Type of data set: cell-based. The following applies: CHO cells expressing hOX2R; Ca2+ fluorescence area; 100% = 10 nM human orexin A; read-out: hOx2 pEC50 (converted). Here is the method: Stable cell line generation. Obtainment of cells stably expressing either human orexin type 2 or human orexin type 1 receptor: to obtain a stable cell line the Orexin receptor cDNA was inserted into pcDNA3.1(+) plasmid vector and clones identified by G418 drug resistance selection. […] A single clone for OX2R—CHO and OX1R—CHO were grown in bulk and frozen to generate a cell bank for routine screening.
Measurement of orexin type 2 receptor agonist activity. Chinese hamster ovary (CHO) cells expressing human orexin type 2 receptor (hOX2R) or human orexin type 1 receptor (hOX1R) were seeded in each well of 384 well black clear bottom plates (BD Flacon) at 10,000 cells per well and cultured for 24 hr in an Ham's F12 (Gibco) medium containing 10% fetal calf serum (Sigma Aldrich) under the conditions of 37° C., 5% CO2. After removal of the medium, 50 μl of assay buffer 1 (0.1% bovine serum albumin (Sigma Aldrich), 20 mM HEPES (Molecular Dimensions), […] probenecid (Sigma Aldrich), 1× Calcium 5 dye (Molecular Devices) in Hank's balanced salt solution (Invitrogen)) was added, and the cells were incubated for 60 min under the conditions of 37° C., 5% CO2. A test compound was dissolved in dimethyl sulfoxide (Sigma Aldrich) to 10 mM, and then diluted with assay buffer 2 (20 mM HEPES, Hank's balanced salt solution, 0.1% bovine serum albumin). For the reaction, a test compound solution (10 μl) was added using Fluorescent Imaging Plate Reader TETRA (FLIPR TETRA: manufactured by Molecular Devices), a fluorescence value (excitation wavelength 488 nm, measurement wavelength 570 nm) of each well was measured every one second for 2 min, and the agonist activity was determined using the area of the fluorescence value as an indicator of intracellular Ca^2+ concentration. The agonist activity of the test compound was calculated assuming that the fluorescence value of the well added with only the dilution buffer was 0% and the fluorescence value of the well added with 10 nM human orexin A (Tocris) buffer was 100%.
Values of hOx2 pEC50 in Table B are presented in ranges, in which 6.0≤“+”<7.0, 7.0≤“++”<8.0, 8.0≤“+++”<9.0, and 9.0≤“++++”<10.4.

The subject of data set [3] is B6.Cg-Tg(HCRT-MJD)1Stak/J (Atax) mouse model of NT1. Description: Wake-promoting efficacy of oral small molecules, piezoelectric sleep/wake monitoring, Atax mice. Conditions: dosed 5 h after light onset. Type of data set: in vivo. Here is the method: (§1) Wake-promoting efficacy of oral small molecules. Wake-promoting efficacy was evaluated in the […]) mouse model of NT1 and wild type (WT) colony mates. Mice were monitored in home cages using piezoelectric sensors for rapid, non-invasive classification of sleep and wakefulness by unsupervised machine learning on physiologically relevant readouts, such as body movement and breath rate. Piezoelectric detection is highly correlated with conventional time-intensive electroencephalogram/electromyography measures of sleep/wake states in both WT and NT1 mice. In a counterbalanced, repeated-measures design, mice were orally dosed at 5 h after light onset with test articles and vehicle.

Data set [4] relates to wild type (WT) colony mates. Kind of data set: Wake-promoting efficacy of oral small molecules, piezoelectric sleep/wake monitoring, WT mice. Conditions: dosed 5 h after light onset. It is filed as in vivo, mouse. Here is the method:
as §1

For data set [5] the following is noted: DCM. The source holds these as a separate data set.

The molecule `CNCCOc1ccccc1-c1cccc(C[C@@H]2NCC3(CC3)[C@@H]2NS(=O)(=O)C(F)F)c1F` came in with a ring closure, yield after HPLC in data set [1] (the molecule shown is the open-chain precursor, other bond, 13-membered ring, triphosgene/TEA, then K2CO3, then MeCN, 0.2 mM, 60.0 °C) of 16%.

`O=C1CCOc2c(F)cccc2-c2cccc(c2F)C[C@H]2[C@@H](NS(=O)(=O)C3(F)CC3)CCCN12` [Example 48, N-((4^2S,4^3S)-13,22-difluoro-5-oxo-8-oxa-4 (2,1)-piperidina-1 (1,2),2 (1,3)-dibenzenacyclooctaphane-4^3-yl)-1-fluorocyclopropane-1-sulfonamide]: the EC50 in data set [2] is 0.0398 to 1 nM. For the same molecule, the “Wake % time 1 h post dose (increase from vehicle)” value is given as 44.4% in data set [3] (oral dose 0.3 mg/kg); 40.5% in data set [3] (oral dose 1 mg/kg); 48.0% in data set [3] (oral dose 3 mg/kg); 18.6% in data set [4] (oral dose 3 mg/kg); 34.8% in data set [4] (oral dose 10 mg/kg).

As for `O=C1CCOc2c(F)cccc2-c2cccc(c2)C[C@H]2[C@@H](NS(=O)(=O)C3(F)CC3)CCCN12` [Example 49, 1-fluoro-N-((4^2S,4^3S)-1^3-fluoro-5-oxo-8-oxa-4 (2,1)-piperidina-1 (1,2),2 (1,3)-dibenzenacyclooctaphane-4^3-yl)cyclopropane-1-sulfonamide], the ring closure, yield after HPLC in data set [1] (from O=C(O)CCOc1c(F)cccc1-c1cccc(C[C@@H]2NCCC[C@@H]2NS(=O)(=O)C2(F)CC2)c1, amide bond, 12-membered ring, DMC (2-chloro-1,3-dimethylimidazolinium chloride)/DIEA, 1.84 mM, 20.0 °C, 4.0 h) came out at 71%. Also, the EC50 in data set [2] is 0.0398 to 1 nM.

In data set [1] (from O=C(O)CCOc1c(F)cc(F)cc1-c1cccc(C[C@@H]2NCC[C@H](F)[C@@H]2NS(=O)(=O)C2(F)CC2)c1F, amide bond, 12-membered ring, DMC (2-chloro-1,3-dimethylimidazolinium chloride)/DIEA, 0.148 mM, 20.0 °C, 4.0 h), `O=C1CCOc2c(F)cc(F)cc2-c2cccc(c2F)C[C@H]2[C@@H](NS(=O)(=O)C3(F)CC3)[C@@H](F)CCN12` [Example 43, 1-fluoro-N-((4^2S,4^3R,4^4S)-1^3,1^5,2^2,4^4-tetrafluoro-5-oxo-8-oxa-4 (2,1)-piperidina-1 (1,2),2 (1,3)-dibenzenacyclooctaphane-4^3-yl)cyclopropane-1-sulfonamide] showed a ring closure, yield after HPLC of 77%. For the same molecule, the EC50 in data set [2] was 0.0398 to 1 nM.

In turn, `O=C1CCCN2C(=O)CCOc3ccccc3-c3cccc(c3F)CC12` (centres unmarked) had a ring closure, isolated yield in data set [5] (from O=C(O)CCOc1ccccc1-c1cccc(CC2NCCCC2=O)c1F, amide bond, 12-membered ring, DMC (2-chloro-1,3-dimethylimidazolinium chloride)/DIEA, 2.7 mM, 25.0 °C, 12.0 h) of 53%.

`O=C1CCOc2c(F)cccc2-c2cccc(c2F)C[C@H]2[C@@H](NS(=O)(=O)C3(F)CC3)[C@@H](F)CCN12` [Example 44, 1-fluoro-N-((4^2S,4^3R,4^4S)-1^3,2^2,4^4-trifluoro-5-oxo-8-oxa-4 (2,1)-piperidina-1 (1,2),2 (1,3)-dibenzenacyclooctaphane-4^3-yl)cyclopropane-1-sulfonamide]: the ring closure, yield after HPLC in data set [1] (from O=C(O)CCOc1c(F)cccc1-c1cccc(C[C@@H]2NCC[C@H](F)[C@@H]2NS(=O)(=O)C2(F)CC2)c1F, amide bond, 12-membered ring, DMC (2-chloro-1,3-dimethylimidazolinium chloride)/DIEA, 0.165 mM, 25.0 °C, 4.0 h) was 42%. Further, the EC50 in data set [2] was 0.0398 to 1 nM.

As for `O=C1CCOc2c(F)cc(F)cc2-c2cccc(c2F)C[C@H]2[C@@H](NS(=O)(=O)CF)[C@@H](F)CCN12` [Example 41, 1-fluoro-N-((4^2S,4^3R,4^4S)-1^3,1^5,2^2,4^4-tetrafluoro-5-oxo-8-oxa-4 (2,1)-piperidina-1 (1,2),2 (1,3)-dibenzenacyclooctaphane-4^3-yl)methanesulfonamide], the EC50 in data set [2] is 0.0398 to 1 nM. In addition, the “Wake % time 1 h post dose (increase from vehicle)” value came to 32.4% in data set [3] (oral dose 1 mg/kg), 38.2% in data set [3] (oral dose 3 mg/kg), 28.0% in data set [4] (oral dose 10 mg/kg) and 31.5% in data set [4] (oral dose 30 mg/kg).

Take `O=C1CCOc2c(F)cccc2-c2cccc(c2F)C[C@H]2[C@@H](NS(=O)(=O)CF)[C@@H](F)CCN12` [Example 42, 1-fluoro-N-((4^2S,4^3R,4^4S)-1^3,2^2,4^4-trifluoro-5-oxo-8-oxa-4 (2,1)-piperidina-1 (1,2),2 (1,3)-dibenzenacyclooctaphane-4^3-yl)methanesulfonamide]: the EC50 in data set [2] was 0.0398 to 1 nM. Moreover, the “Wake % time 1 h post dose (increase from vehicle)” value in data set [3] (oral dose 1 mg/kg) was 33.7%; in data set [3] (oral dose 3 mg/kg), 34.2%; in data set [4] (oral dose 3 mg/kg) it was 17.1%; in data set [4] (oral dose 10 mg/kg), 22.8%; in data set [4] (oral dose 30 mg/kg), 37.7%.

As for “1,1-difluoro-N-((4^2S,4^3R)-1^3,4^4,4^4-trifluoro-6-methyl-5-oxo-9-oxa-6-aza-4 (2,1)-pyrrolidina-1 (1,2),2 (1,3)-dibenzenacyclononaphane-4^3-yl) methanesulfonamide_cis racemic”, in data set [5] (other bond, 13-membered ring, triphosgene/TEA, then K2CO3, then MeCN, 0.4 mM, 20.0 °C), the ring closure, isolated yield was 28.5%.

Consider `O=C1CCOc2c(F)cc(F)cc2-c2cccc(c2F)C[C@H]2[C@@H](NS(=O)(=O)C3(F)CC3)CCCN12` [Example 47, 1-fluoro-N-((4^2S,4^3S)-1^3,1^5,2^2-trifluoro-5-oxo-8-oxa-4 (2,1)-piperidina-1 (1,2),2 (1,3)-dibenzenacyclooctaphane-4^3-yl)cyclopropane-1-sulfonamide], for which the ring closure, isolated yield in data set [5] (from O=C(O)CCOc1c(F)cc(F)cc1-c1cccc(C[C@@H]2NCCC[C@@H]2NS(=O)(=O)C2(F)CC2)c1F, amide bond, 12-membered ring, DMC (2-chloro-1,3-dimethylimidazolinium chloride)/DIEA, 1.56 mM, 25.0 °C, 1.0 h) was 44%. Moreover, the EC50 in data set [2] is 0.0398 to 1 nM. The “Wake % time 1 h post dose (increase from vehicle)” value in data set [3] (oral dose 0.3 mg/kg) was determined as 41.3%; in data set [3] (oral dose 1 mg/kg) it was 41.8%; in data set [3] (oral dose 3 mg/kg), 40.4%; in data set [4] (oral dose 1 mg/kg) it was 20.7%; in data set [4] (oral dose 3 mg/kg) it was 37.6%; in data set [4] (oral dose 10 mg/kg), 39.0%.

On to `O=C1CCCN2C(=O)CCOc3ccccc3-c3cccc(c3)CC12` (centres unmarked), for which the ring closure, isolated yield in data set [5] (from O=C(O)CCOc1ccccc1-c1cccc(CC2NCCCC2=O)c1, amide bond, 12-membered ring, DMC (2-chloro-1,3-dimethylimidazolinium chloride)/DIEA, 2.56 mM, 25.0 °C, 12.0 h) was found to be 52%.
